From PubChem BioAssay AID248 (DTP/NCI, 2004)
Where “and” joins values, the source holds several entries; their conditions need not be identical. Identical values can stand only once. Inconclusive results and toxic doses are left out. No stated cut-off is given here; in the data, active means T/C of 150% or more; inactive means T/C below 125%.

Tested on: L1210 leukemia ip in BDF1 mice, survival T/C
Test: NCI In Vivo Anticancer Drug Screen. Data for tumor model L1210 Leukemia (intraperitoneal) in B6D2F1 (BDF1) mice
Settings: endpoint: mean survival time, higher = longer survival
Method in brief: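 Read-out is survival time, reported as the treated-group measurement over the vehicle-control measurement.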

[1] = dose: 50.0 mg/kg/injection, schedule: Q01DX009 (ip), vehicle: Klucel (hydroxypropylcellulose) (HPC)
[2] = dose: 100.0 mg/kg/injection, schedule: Q04DX003 (ip), vehicle: Klucel (hydroxypropylcellulose) (HPC)
[3] = dose: 100.0 mg/kg/injection, schedule: Q01DX001 (ip), vehicle: Klucel (hydroxypropylcellulose) (HPC)
[4] = dose: 200.0 mg/kg/injection, schedule: Q01DX001 (ip), vehicle: Klucel (hydroxypropylcellulose) (HPC)
[5] = dose: 100.0 mg/kg/injection, schedule: Q01DX009 (ip), vehicle: saline with Tween-80
[6] = dose: 200.0 mg/kg/injection, schedule: Q01DX009 (ip), vehicle: saline with Tween-80
[7] = dose: 400.0 mg/kg/injection, schedule: Q01DX009 (ip), vehicle: saline with Tween-80
[8] = dose: 100.0 mg/kg/injection, schedule: Q01DX009 (ip), vehicle: Klucel (hydroxypropylcellulose) (HPC)
[9] = dose: 200.0 mg/kg/injection, schedule: Q01DX009 (ip), vehicle: Klucel (hydroxypropylcellulose) (HPC)
[10] = dose: 100.0 mg/kg/injection, schedule: Q01DX001 (ip), vehicle: saline
[11] = dose: 200.0 mg/kg/injection, schedule: Q01DX001 (ip), vehicle: saline
[12] = dose: 400.0 mg/kg/injection, schedule: Q01DX009 (ip), vehicle: Klucel (hydroxypropylcellulose) (HPC)
[13] = dose: 200.0 mg/kg/injection, schedule: Q04DX003 (ip), vehicle: Klucel (hydroxypropylcellulose) (HPC)
[14] = dose: 400.0 mg/kg/injection, schedule: Q04DX003 (ip), vehicle: Klucel (hydroxypropylcellulose) (HPC)

Measured: T/C

CC/C(=C\c1ccc(Cl)cc1)[N+](=O)[O-]
inactive: dose: 12.5 mg/kg/injection, schedule: Q01DX009 (ip), vehicle: Klucel (hydroxypropylcellulose) (HPC) 98 % of control | dose: 25.0 mg/kg/injection, schedule: Q01DX009 (ip), vehicle: Klucel (hydroxypropylcellulose) (HPC) 100 % of control | dose: 25.0 mg/kg/injection, schedule: Q04DX003 (ip), vehicle: Klucel (hydroxypropylcellulose) (HPC) 100 % of control | [1] 88 % of control | dose: 50.0 mg/kg/injection, schedule: Q04DX003 (ip), vehicle: Klucel (hydroxypropylcellulose) (HPC) 105 % of control | [2] 101 % of control and 111 % of control

O=C1c2c(O)cccc2C(Br)c2cccc(O)c21
inactive: dose: 100.0 mg/kg/injection, schedule: Q01DX001 (ip), vehicle: water 108 % of control | dose: 100.0 mg/kg/injection, schedule: Q01DX009 (ip), vehicle: water 103 % of control | dose: 200.0 mg/kg/injection, schedule: Q01DX001 (ip), vehicle: water 108 % of control | dose: 200.0 mg/kg/injection, schedule: Q01DX009 (ip), vehicle: water 100 % of control | dose: 300.0 mg/kg/injection, schedule: Q01DX001 (ip), vehicle: water 104 % of control | dose: 400.0 mg/kg/injection, schedule: Q01DX009 (ip), vehicle: water 90 % of control

O=c1c2c3ccccc3c(=O)c=2c2ccccc12
inactive: [3] 98 % of control | [4] 103 % of control

Cc1ccc2c(c1)C(c1ccccc1)(c1ccccc1)OC2=O
inactive: [5] 98 % of control | [6] 98 % of control | [7] 103 % of control

NCC1COc2ccccc2N1 (stereo not given)
inactive: dose: 100.0 mg/kg/injection, schedule: Q04DX002 (ip), vehicle: other 108 % of control | dose: 200.0 mg/kg/injection, schedule: Q04DX002 (ip), vehicle: other 101 % of control | dose: 400.0 mg/kg/injection, schedule: Q04DX002 (ip), vehicle: other 111 % of control

CC1CC(C)(C)N=C(c2cccc(Br)c2)O1 (stereo not given)
inactive: [5] 103 % of control | [6] 103 % of control | [7] 92 % of control

CCCOc1ccc(-c2nc(-c3ccc(N=Cc4ccc(N(CCOS(C)(=O)=O)CCOS(C)(=O)=O)cc4Cl)cc3)cs2)cc1
inactive: [1] 107 % of control | [3] 102 % of control | [8] 100 % of control | [4] 100 % of control | [9] 107 % of control | dose: 400.0 mg/kg/injection, schedule: Q01DX001 (ip), vehicle: Klucel (hydroxypropylcellulose) (HPC) 96 % of control

Cc1cc(Br)cnc1Cl
inactive: dose: 100.0 mg/kg/injection, schedule: Q04DX003 (ip), vehicle: saline with Tween-80 96 % of control | dose: 200.0 mg/kg/injection, schedule: Q04DX003 (ip), vehicle: saline with Tween-80 94 % of control | dose: 400.0 mg/kg/injection, schedule: Q04DX003 (ip), vehicle: saline with Tween-80 96 % of control

c1ccc2c(c1)ccc1cc3cc(NCCCCNc4ccc5nc6c(ccc7ccccc76)cc5c4)ccc3nc12
inactive: dose: 1.56 mg/kg/injection, schedule: Q01DX009 (ip), vehicle: saline with Tween-80 95 % of control | dose: 3.13 mg/kg/injection, schedule: Q01DX009 (ip), vehicle: saline with Tween-80 92 % of control | dose: 6.25 mg/kg/injection, schedule: Q01DX009 (ip), vehicle: saline with Tween-80 95 % of control and 111 % of control | dose: 12.5 mg/kg/injection, schedule: Q01DX009 (ip), vehicle: saline with Tween-80 87 % of control

CCOC(=O)CNC(=O)OCCN1CCNC1=S
inactive: [5] 98 % of control | [6] 100 % of control | [7] 101 % of control

CC1=CC(=O)C(C)(C)CC1
inactive: dose: 50.0 mg/kg/injection, schedule: Q01DX009 (ip), vehicle: saline with Tween-80 96 % of control | [5] 92 % of control | [6] 100 % of control

NC(C(=O)O)c1ccc(F)cc1 (stereo not given)
inactive: dose: 50.0 mg/kg/injection, schedule: Q01DX001 (ip), vehicle: saline 104 % of control | [10] 104 % of control | [11] 101 % of control

O=C(O)c1cccc(Br)c1[N+](=O)[O-]
inactive: [10] 97 % of control | [11] 101 % of control

CC(C)(C)c1ccc(Oc2ccc([N+](=O)[O-])cc2[N+](=O)[O-])c(Br)c1
inactive: [8] 96 % of control | dose: 100.0 mg/kg/injection, schedule: Q04DX002 (ip), vehicle: Klucel (hydroxypropylcellulose) (HPC) 104 % of control | [9] 96 % of control | dose: 200.0 mg/kg/injection, schedule: Q04DX002 (ip), vehicle: Klucel (hydroxypropylcellulose) (HPC) 108 % of control | [12] 96 % of control | dose: 400.0 mg/kg/injection, schedule: Q04DX002 (ip), vehicle: Klucel (hydroxypropylcellulose) (HPC) 111 % of control

CCOC(=O)/C(C#N)=C\c1oc2cc(C)c(C)cc2c1C
inactive: [8] 103 % of control | [2] 106 % of control | [9] 99 % of control | [13] 101 % of control | [12] 94 % of control | [14] 98 % of control

O=C1Nc2c(Cl)cccc2C1=O
inactive: dose: 25.0 mg/kg/injection, schedule: Q01DX009 (ip), vehicle: saline 92 % of control | dose: 25.0 mg/kg/injection, schedule: Q04DX003 (ip), vehicle: saline 98 % of control | dose: 50.0 mg/kg/injection, schedule: Q01DX009 (ip), vehicle: saline 94 % of control | dose: 50.0 mg/kg/injection, schedule: Q04DX003 (ip), vehicle: saline 98 % of control | dose: 100.0 mg/kg/injection, schedule: Q01DX009 (ip), vehicle: saline 92 % of control | dose: 100.0 mg/kg/injection, schedule: Q04DX003 (ip), vehicle: saline 96 % of control

CN(C)CCCCCCN(C)C (tested in a mixture with another compound)
inactive: dose: 9.38 mg/kg/injection, schedule: Q01DX001 (ip), vehicle: saline 102 % of control | dose: 18.75 mg/kg/injection, schedule: Q01DX001 (ip), vehicle: saline 95 % of control | dose: 37.5 mg/kg/injection, schedule: Q01DX001 (ip), vehicle: saline 93 % of control

CC(=O)OC(C#N)c1cccc([N+](=O)[O-])c1 (stereo not given)
inactive: dose: 6.25 mg/kg/injection, schedule: Q04DX002 (ip), vehicle: Klucel (hydroxypropylcellulose) (HPC) 97 % of control | dose: 12.5 mg/kg/injection, schedule: Q04DX002 (ip), vehicle: Klucel (hydroxypropylcellulose) (HPC) 102 % of control | dose: 25.0 mg/kg/injection, schedule: Q04DX002 (ip), vehicle: Klucel (hydroxypropylcellulose) (HPC) 100 % of control and 92 % of control

Cc1ccc(NC(=O)c2ccc(Cl)cc2)cc1
inactive: [8] 95 % of control | [2] 97 % of control | [9] 99 % of control | [13] 103 % of control | [12] 90 % of control | [14] 103 % of control

CCOC(=O)C/C(C)=N\N=C(\C)C(=O)OCC
inactive: [10] 98 % of control | [11] 98 % of control | dose: 400.0 mg/kg/injection, schedule: Q01DX001 (ip), vehicle: saline 92 % of control
